{
  "source": "patent US11633383B2",
  "about": "“Dosage principle for drugs useful for treating neoplastic diseases” (Basilea Pharmaceutica International AG, priority 2017, dated 2023)",
  "key": {"[1]": {"settings": "cited from earlier work"}, "[2]": {"assay": "Blood pressure measurements in patients treated with BAL101553", "type": "in vivo, human", "settings": "cycle 1 day 1", "experimental": "On day 1 of cycle 1 of the 2-hour and 48-hour intravenous infusion studies systolic and diastolic blood pressures were measured using a calibrated, automated blood pressure device at various time points, i.e. prior to the first administration of study drug and then at least hourly for the first 4 hours after start of dosing."}, "tumour": {"tested_on": "tumour", "assay": "Clinical trials of BAL101553: tumour response", "type": "in vivo, human", "excerpt": "(§1) In another clinical trial BAL101553 (dihydrochloride salt) was given as a 48-hour infusion on days 1, 8 and 15 of each 28 day cycle.\n(§2) In another clinical trial BAL101553 (dihydrochloride salt) was given as a daily oral administration in treatment cycles consisting of 28 days of continuous, daily administration to patients in a fasted state (comparative Example)."}, "[3]": {"settings": "cited from earlier work", "remark": "listed apart in the source"}, "[4]": {"assay": "Clinical trials of BAL101553: maximum tolerated dose and adverse drug reactions", "type": "in vivo, human", "excerpt": "(§3) In one clinical trial BAL101553 (dihydrochloride salt) was given as a 2-hour infusion on days 1, 8, and 15 of each 28-day cycle (comparative Example).\nas §1, §2\n(§4) BAL101553 (dihydrochloride salt) for intravenous administration is prepared by reconstitution of lyophilized BAL101553 (dihydrochloride salt) with saline solution or Ringer lactate solution, prior to further dilution with Ringer lactate for intravenous infusion to the patient. The 48-hour infusion is administered via an elastomeric pump (Baxter) using an infusion volume of 120 ml or 240 ml.\n(§5) BAL101553 (dihydrochloride salt) for oral administration is prepared as a HPMC capsules containing 1 mg active ingredient, 98 mg of mannitol and 1 mg magnesium stearate, or 5 mg active ingredient, 94 mg mannitol and 1 mg magnesium stearate."}, "[5]": {"assay": "Plasma concentrations of BAL27862 (Cmax, AUC) in patients, 48-hour intravenous infusion study", "type": "in vivo, human", "settings": "for AUClast / Cmax: BAL27862 in plasma; for AUC: plasma, BAL27862, compared as weekly exposure", "experimental": "as §1, §4\n48-hour intravenous infusion study: on day 1 of cycle 1 blood samples were collected at pre-dose and where clinically feasible 0.5, 1, 2, 4, 8, 24, 30, 48, 52, 54, 72, and 168 hours after dosing.\n(§6) Venous blood samples were collected into chilled 2 ml plastic tubes containing K2-EDTA as an anticoagulant mixed with 20 μl 2M citric acid and kept on ice for 15 minutes. Approximately 1.0 ml plasma was prepared by centrifugation at 1′500×g for 10-15 minutes at 4° C., transferred into new vials and stored at −80° C. until analysis. Plasma concentrations of BAL27862 were determined with a fully validated LC-MS/MS method:\n(§7) 50 μl of acetonitrile was added to 25 μl plasma containing stable labelled internal standards (IS). After vortexing, the samples were centrifuged for 10 minutes at 50′000×g at 8° C. and 50 μl of the supernatant was transferred to an empty auto-sampler vial. The extract was separated by liquid chromatography, performed using water (0.1% formic acid) as mobile phase A and acetonitrile (0.1% formic acid) as mobile phase B. The column used was a YMC Hydroshere C18, 2.1×33 mm, 3 μm (YMC Co, Kyoto, Japan). The injection volume was set to 2 μL (full loop).\n(§8) Detection was carried out using a triple-stage quadrupole MS/MS (TSQ Vantage, Thermo Fisher\n(§9) Scientific, San Jose, Calif., USA) in the selected reaction monitoring mode.\n(§10) The following calibration range was applied:\n(§11) 1 to 1000 ng/ml for BAL27862 in human plasma ([…], citric acid)\n(§12) Calculation of Pharmacokinetic Parameters (exposure [Area Under the Curve—AUC] and peak [Cmax] drug levels) for Human Samples:\n(§13) AUC and Cmax of BAL27862 were calculated by non-compartmental analysis (NCA) using Phoenix WinNonLin 7.0 software from Certara."}, "[6]": {"assay": "Plasma concentrations of BAL27862 (Cmax, AUC) in patients, daily oral administration study", "type": "in vivo", "settings": "human, BAL101553 dihydrochloride daily oral, N=7; for AUC: plasma, BAL27862, compared as weekly exposure; for Cmax: BAL27862 in plasma", "experimental": "as §2, §5\nDaily oral administration study: on day 1 of cycle 1 blood samples were collected at pre-dose and where clinically feasible 0.5, 1, 2, 3, 4, 6, 8 and 24 hours after intake of study medication.\nas §6, §7, §8, §9, §10, §11, §12, §13"}, "[7]": {"assay": "Plasma concentrations of BAL27862 (Cmax, AUC) in patients, 2-hour intravenous infusion study", "type": "in vivo, human", "settings": "mean", "experimental": "as §3, §4\n2-hour intravenous infusion study: on day 1 of cycle 1 blood samples were collected at pre-dose and where clinically feasible 0.5, 1, 2, 3, 4, 6, 8 and 24 hours after dosing.\nas §6, §7, §8, §9, §10, §11, §12, §13"}, "[8]": {"settings": "2-hour infusion on study days 1, 8 and 15, q28 days, 2016 ASCO poster"}, "[9]": {"settings": "BAL101553 dihydrochloride 45 mg/m^2, 48 hours infusion, mean, N=3, cycle 1 day 1"}, "[10]": {"settings": "BAL101553 dihydrochloride 70 mg/m^2, 48 hours infusion, mean, N=4, cycle 1 day 1"}, "[11]": {"settings": "BAL101553 dihydrochloride 90 mg/m^2, 48 hours infusion, mean, N=4, cycle 1 day 1"}, "[12]": {"settings": "BAL101553 dihydrochloride 45 mg/m^2, 2 hours infusion, N=8, cycle 1 day 1"}, "[13]": {"settings": "BAL101553 dihydrochloride 60 mg/m^2, 2 hours infusion, N=21, cycle 1 day 1"}},
  "data": [
    {"smiles": "N#CCCNc1nonc1-c1nc2ccccc2n1CC(=O)c1ccc(NC(=O)[C@@H](N)CCCCN)cc1", "note": "[BAL101553, (S)-2,6-Diamino-hexanoic acid [4-(2-{2-[4-(2-cyano-ethylamino)-furazan-3-yl]-benzoimidazol-1-yl}-acetyl)-phenyl]-amide]", "values": [
      {"measurement": "myocardial ischemia", "setting": "[1]; [8]", "value": "asymptomatic myocardial ischemia"},
      {"measurement": "recommended phase 2 dose", "setting": "[1]; [8]", "value": 30, "unit": "mg/m^2"},
      {"measurement": "vascular effects", "setting": "[1]; 2-hour infusion, related to peak drug concentration (Cmax), 2016 ASCO poster", "value": "dose-dependent vascular effects that were dose-limiting"},
      {"measurement": "MTD", "setting": "[1]; 2-hour intravenous administration, phase I escalation study of WO2015/173341", "value": 60, "unit": "mg/m^2"},
      {"measurement": "change from baseline in systolic and diastolic blood pressure", "setting": "[2]; infused over 48 hours, 45 or 70 mg/m^2", "value": "neutral blood pressure profile or a minor average change from baseline"},
      {"measurement": "change from baseline in systolic and diastolic blood pressure", "setting": "[2]; infusion duration of 2 hours, 45 or 60 mg/m^2", "value": "distinct changes from baseline"},
      {"measurement": "tumour response", "setting": "tumour; 48-hour infusion regimen, MTD dose (70 mg/m^2)", "value": "partial tumour response in a patient"},
      {"measurement": "objective responses", "setting": "tumour; daily oral dose regimen, any dose", "value": "no objective responses were observed"},
      {"measurement": "water solubility", "setting": "[3]", "value": "highly water-soluble"},
      {"measurement": "troponin elevation indicative of myocardial damage", "setting": "[4]; 45 mg/m^2 or 60 mg/m^2, 2-hour infusion", "value": "Three patients"},
      {"measurement": "troponin elevation indicative of myocardial damage", "setting": "[4]; 45 mg/m^2 or 70 mg/m^2, 48-hour infusion", "value": "not observed"},
      {"measurement": "Grade 4 hyponatremia", "setting": "[4]; 90 mg/m^2 (supra-MTD), 48-hour infusion regimen", "value": "no observation of Grade 4 hyponatremia"},
      {"measurement": "maximum tolerated dose (MTD)", "setting": "[4]; 48-hour infusion on days 1, 8 and 15 of each 28 day cycle", "value": 70, "unit": "mg/m^2"},
      {"measurement": "Serious Grade 4 adverse drug reactions", "setting": "[4]; 48-hour infusion, 70 mg/m^2, N=9", "value": "None"},
      {"measurement": "Serious Grade 4 adverse drug reactions", "setting": "[4]; 48-hour infusion, 90 mg/m^2, N=4", "value": "None"},
      {"measurement": "maximum tolerated dose (MTD)", "setting": "[4]; daily oral administration, 28-day cycles, fasted state", "value": 16, "unit": "mg/day"},
      {"measurement": "serious Grade 4 hyponatremia", "setting": "[4]; daily oral dose of 20 mg/day (supra-MTD)", "value": 2, "unit": "patients"},
      {"measurement": "Serious Grade 4 adverse drug reactions", "setting": "[4]; daily oral, 16 mg, N=7", "value": "None"},
      {"measurement": "Serious Grade 4 adverse drug reactions", "setting": "[4]; daily oral, 20 mg, N=7", "value": 2, "unit": "patients with"}
    ]},
    {"smiles": "N#CCCNc1nonc1-c1nc2ccccc2n1CC(=O)c1ccc(N)cc1", "note": "[BAL27862, 3-(4-{1-[2-(4-Amino-phenyl)-2-oxo-ethyl]-1H-benzoimidazol-2-yl}-furazan-3-ylamino)-propionitrile]", "values": [
      {"measurement": "variability of pharmacokinetic exposure (AUC)", "setting": "[5]; 48-hour dose regimen versus daily oral regimen", "value": "lower variability"},
      {"measurement": "AUClast", "setting": "[5]; [9]", "value": 3830, "unit": "h*ng/m"},
      {"measurement": "Cmax", "setting": "[5]; [9]", "value": 77.7, "unit": "ng/m"},
      {"measurement": "AUClast", "setting": "[5]; [10]", "value": 9030, "unit": "h*ng/m"},
      {"measurement": "Cmax", "setting": "[5]; [10]", "value": 152, "unit": "ng/m"},
      {"measurement": "AUClast", "setting": "[5]; [11]", "value": 12000, "unit": "h*ng/m"},
      {"measurement": "Cmax", "setting": "[5]; [11]", "value": 238, "unit": "ng/m"},
      {"measurement": "Cmax", "setting": "[5]; human, intravenous, BAL101553 dihydrochloride 48-hour infusion, 70 mg/m^2, N=9, read-out: Cmax (mean, ng/ml)", "value": 148, "unit": "ng/mL"},
      {"measurement": "Cmax", "setting": "[5]; human, intravenous, BAL101553 dihydrochloride 48-hour infusion, 90 mg/m^2, N=4, read-out: Cmax (mean, ng/ml)", "value": 238, "unit": "ng/mL"},
      {"measurement": "AUC", "setting": "[5]; human, intravenous, BAL101553 dihydrochloride 48-hour infusion, 70 mg/m^2, N=9", "value": 8580, "unit": "ng·h/mL"},
      {"measurement": "AUC", "setting": "[5]; human, intravenous, BAL101553 dihydrochloride 48-hour infusion, 90 mg/m^2, N=4", "value": 13500, "unit": "ng·h/mL"},
      {"measurement": "AUC", "setting": "[6]; 16 mg", "value": 8400, "unit": "ng·h/mL"},
      {"measurement": "AUC", "setting": "[6]; 20 mg", "value": 12200, "unit": "ng·h/mL"},
      {"measurement": "Cmax", "setting": "[6]; 16 mg", "value": 131, "unit": "ng/mL"},
      {"measurement": "Cmax", "setting": "[6]; 20 mg", "value": 134, "unit": "ng/mL"},
      {"measurement": "AUClast", "setting": "[7]; [12]", "value": 4340, "unit": "h*ng/m"},
      {"measurement": "Cmax", "setting": "[7]; [12]", "value": 356, "unit": "ng/m"},
      {"measurement": "AUClast", "setting": "[7]; [13]", "value": 6040, "unit": "h*ng/m"},
      {"measurement": "Cmax", "setting": "[7]; [13]", "value": 498, "unit": "ng/m"}
    ]}
  ]
}
